In one experiment the target is sigma 1 receptor (Homo sapiens, UniProt Q99720). Briefly: Sigma 1 receptor radioligand competition binding. (In general: In a radioligand displacement assay an active substance lowers the binding of a labelled ligand.)
The target in another experiment is sigma 2 receptor (Homo sapiens, UniProt Q5BJF2). Briefly: Sigma 2 receptor radioligand competition binding. Conditions: for Ki ratio Sig1R/Sig2R: ratio of Sig1R Ki to Sig2R Ki.
A further experiment concerns the target H1 (Homo sapiens, UniProt P35367). Briefly: Radioligand competition binding, H1. Conditions: Table 5; Cheng-Prusoff from best fit IC50.
[1] abbreviates: Table 1, 7-piperazinyl-tetrahydronaphthalene analogs, read-out: Ki (nM) Sig1R.
The mark [2] stands for this setting: Table 1, 7-piperazinyl-tetrahydronaphthalene analogs, read-out: Ki (nM) Sig2R.
Setting [3] is: Table 2, piperazinyl-tetrahydronaphthalene analogs, read-out: Ki (nM) Sig1R.
The mark [4] stands for this setting: Table 2, piperazinyl-tetrahydronaphthalene analogs, read-out: Ki (nM) Sig2R.

Like-named read-outs stand apart in the source and are kept apart here.

Chain of sigma 2 receptor (Q5BJF2 whole entry, species assumed): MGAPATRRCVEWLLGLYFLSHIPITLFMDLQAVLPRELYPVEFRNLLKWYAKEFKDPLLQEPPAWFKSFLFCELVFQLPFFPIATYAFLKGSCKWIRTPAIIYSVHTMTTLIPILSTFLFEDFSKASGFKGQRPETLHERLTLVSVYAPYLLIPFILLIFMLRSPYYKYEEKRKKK
Chain of sigma 1 receptor (Q99720 whole entry, species assumed): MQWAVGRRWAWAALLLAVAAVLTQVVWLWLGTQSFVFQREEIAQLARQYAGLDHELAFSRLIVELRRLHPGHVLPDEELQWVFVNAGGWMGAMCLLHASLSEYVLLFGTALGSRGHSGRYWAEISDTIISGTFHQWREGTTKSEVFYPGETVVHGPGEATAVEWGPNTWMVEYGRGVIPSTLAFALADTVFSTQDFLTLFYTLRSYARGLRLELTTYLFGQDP
Chain of H1 (P35367 whole entry): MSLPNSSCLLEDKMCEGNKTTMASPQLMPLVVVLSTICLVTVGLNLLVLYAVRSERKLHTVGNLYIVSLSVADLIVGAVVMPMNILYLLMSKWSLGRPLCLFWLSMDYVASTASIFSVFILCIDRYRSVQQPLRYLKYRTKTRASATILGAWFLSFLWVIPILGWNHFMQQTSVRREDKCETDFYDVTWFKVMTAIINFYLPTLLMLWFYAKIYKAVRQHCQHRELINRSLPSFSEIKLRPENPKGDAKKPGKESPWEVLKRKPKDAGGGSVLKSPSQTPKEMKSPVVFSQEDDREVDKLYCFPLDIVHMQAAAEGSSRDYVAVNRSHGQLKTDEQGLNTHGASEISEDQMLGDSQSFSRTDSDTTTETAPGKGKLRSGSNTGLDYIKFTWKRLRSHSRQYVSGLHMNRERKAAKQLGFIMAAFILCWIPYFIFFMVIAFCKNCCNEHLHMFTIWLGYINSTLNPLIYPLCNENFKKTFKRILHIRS

By Ki is commonly meant the equilibrium dissociation constant of an inhibitor or competing ligand from its target. Turning to `CCCN1CCN(c2ccc3c(c2)C(N(CC)C(=O)OCc2ccccc2)CCC3)CC1` (centres unmarked) [MDW-1-195, Benzyl ethyl(7-(4-propylpiperazin-1-yl)-1,2,3,4-tetrahydronaphthalen-1-yl)carbamate], the inhibition constant (Ki) at sigma 1 receptor (setting [1]) was 321 nM; on sigma 2 receptor (setting [2]), 5 nM. Further, the “Ki ratio Sig1R/Sig2R” value at sigma 2 receptor (Table 1) came to 70.
In the case of `CCCN1CCN(c2ccc3c(c2)C(OC(=O)CCc2ccccc2)CCC3)CC1` (centres unmarked) [MDW-1-290, 7-(4-Propylpiperazin-1-yl)-1,2,3,4-tetrahydronaphthalen-1-yl 3-phenylpropanoate], the values for the Ki on sigma 1 receptor (setting [1]) and on sigma 2 receptor (setting [2]) were 33 nM and 25 nM, respectively. The “Ki ratio Sig1R/Sig2R” value at sigma 2 receptor (Table 1) worked out at 1.
With `CCOC(=O)CCN1CCN(c2ccc3c(c2)C(NC(=O)OCc2ccccc2)CCC3)CC1` (centres unmarked) [MDW-1-206, Ethyl 3-(4-(8-(((benzyloxy)carbonyl)amino)-5,6,7,8-tetrahydronaphthalen-2-yl)piperazin-1-yl)propanoate], the inhibition constant Ki stood at 2260 nM on sigma 1 receptor (setting [1]) and 80 nM at sigma 2 receptor (setting [2]). Moreover, the “Ki ratio Sig1R/Sig2R” value on sigma 2 receptor (Table 1) stood at 28.
For the compound `CCOC(=O)CN1CCN(c2ccc3c(c2)C(N(C)C(=O)OCc2ccccc2)CCC3)CC1` (centres unmarked) [MDW-1-169, Ethyl 2-(4-(8-(((benzyloxy)carbonyl)(methyl)amino)-5,6,7,8-tetrahydronaphthalen-2-yl)piperazin-1-yl)acetate], the inhibition constant (Ki) was above 10000 nM on sigma 1 receptor (setting [1]) and 894 nM on sigma 2 receptor (setting [2]).
Consider `COC(=O)CCN1CCN(c2ccc3c(c2)C(N(C)C(=O)OCc2ccccc2)CCC3)CC1` (centres unmarked) [MDW-1-166, Methyl 3-(4-(8-(((benzyloxy)carbonyl)(methyl)amino)-5,6,7,8-tetrahydronaphthalen-2-yl)piperazin-1-yl)propanoate], for which the Ki was 2860 nM on sigma 1 receptor (setting [1]) and 43 nM on sigma 2 receptor (setting [2]). The “Ki ratio Sig1R/Sig2R” value on sigma 2 receptor (Table 1) is 67.
Consider `CN(C(=O)OCc1ccccc1)C1CCCc2ccc(N3CCN(C4CCC4)CC3)cc21` (centres unmarked) [MDW-1-162, Benzyl (7-(4-cyclobutylpiperazin-1-yl)-1,2,3,4-tetrahydronaphthalen-1-yl)(methyl)carbamate], for which the Ki at sigma 1 receptor (setting [1]) turned out to be 266 nM; at sigma 2 receptor (setting [2]), 12 nM. In addition, the “Ki ratio Sig1R/Sig2R” value on sigma 2 receptor (Table 1) turned out to be 22.
With `CCOC(=O)CCN1CCN(c2cccc3c2CCCC3N(C)C(=O)OCc2ccccc2)CC1` (centres unmarked) [MDW-1-214, Ethyl 3-(4-(5-(((benzyloxy)carbonyl)(methyl)amino)-5,6,7,8-tetrahydronaphthalen-1-yl)piperazin-1-yl)propanoate], the inhibitory constant (Ki) on sigma 1 receptor (setting [3]) stood at 303 nM; on sigma 2 receptor (setting [4]), 34 nM. Further, the “Ki ratio Sig1R/Sig2R” value on sigma 2 receptor (Table 2) came out at 9.
As to `CCCN1CCN(c2ccc3c(c2)C(NC(=O)OCc2ccccc2)CCC3)CC1` (centres unmarked) [MDW-1-202, Benzyl (7-(4-propylpiperazin-1-yl)-1,2,3,4-tetrahydronaphthalen-1-yl)carbamate], the Ki was 174 nM on sigma 1 receptor (setting [1]) and 56 nM at sigma 2 receptor (setting [2]). Moreover, the “Ki ratio Sig1R/Sig2R” value at sigma 2 receptor (Table 1) turned out to be 3.
On to `CCOC(=O)CCN1CCN(c2ccc3c(c2)CCCC3N(C)C(=O)OCc2ccccc2)CC1` (centres unmarked) [MDW-1-207, Ethyl 3-(4-(5-(((benzyloxy)carbonyl)(methyl)amino)-5,6,7,8-tetrahydronaphthalen-2-yl)piperazin-1-yl)propanoate], for which the values for the inhibition constant Ki on sigma 1 receptor (setting [3]) and at sigma 2 receptor (setting [4]) were 647 nM and 91 nM, respectively. In addition, the “Ki ratio Sig1R/Sig2R” value on sigma 2 receptor (Table 2) came out at 7.
For the compound `CCCN1CCN(c2cccc3c2CCCC3N(C)C(=O)OCc2ccccc2)CC1` (centres unmarked) [MDW-1-215, Benzyl methyl(5-(4-propylpiperazin-1-yl)-1,2,3,4-tetrahydronaphthalen-1-yl)carbamate], the Ki on sigma 1 receptor (setting [3]) was determined as 12 nM; at sigma 2 receptor (setting [4]) it was 26 nM. Further, on sigma 2 receptor (Table 2), the “Ki ratio Sig1R/Sig2R” value is 0.5.
With `CC(C)N1CCN(c2ccc3c(c2)C(N(C)C(=O)OCc2ccccc2)CCC3)CC1` (centres unmarked) [MDW-1-167, Benzyl (7-(4-isopropylpiperazin-1-yl)-1,2,3,4-tetrahydronaphthalen-1-yl)(methyl)carbamate], the inhibitory constant (Ki) came out at 223 nM on sigma 1 receptor (setting [1]) and 8 nM on sigma 2 receptor (setting [2]). Further, the “Ki ratio Sig1R/Sig2R” value at sigma 2 receptor (Table 1) is recorded as 27.
Turning to `CN1CCN(c2ccc3c(c2)C(N(C)C(=O)OCc2ccccc2)CCC3)CC1` (centres unmarked) [MDW-1-93, Benzyl methyl(7-(4-methylpiperazin-1-yl)-1,2,3,4-tetrahydronaphthalen-1-yl)carbamate], the inhibition constant (Ki) is 2940 nM at sigma 1 receptor (setting [1]) and 284 nM at sigma 2 receptor (setting [2]). Further, at sigma 2 receptor (Table 1), the “Ki ratio Sig1R/Sig2R” value is recorded as 10.
On to `CN(Cc1ccccc1)C1CCCc2cc(N3CCOCC3)ccc21` (centres unmarked) [MDW-1-129, N-Benzyl-N-methyl-6-morpholino-1,2,3,4-tetrahydronaphthalen-1-amine], for which the inhibition constant (Ki) at sigma 1 receptor (Table 5, Cheng-Prusoff from best fit IC50, read-out: Ki Sigma 1) came out at 223 nM; at H1 it was 118 nM; on sigma 2 receptor (Table 5, Cheng-Prusoff from best fit IC50, read-out: Ki Sigma 2), 1170 nM.
`CCN1CCN(c2ccc3c(c2)C(N(C)C(=O)OCc2ccccc2)CCC3)CC1` (centres unmarked) [MDW-1-161, Benzyl (7-(4-ethylpiperazin-1-yl)-1,2,3,4-tetrahydronaphthalen-1-yl)(methyl)carbamate]: the inhibition constant (Ki) on sigma 1 receptor (setting [1]) came to 887 nM; on sigma 2 receptor (setting [2]) it was 35 nM. The “Ki ratio Sig1R/Sig2R” value at sigma 2 receptor (Table 1) is on record as 25.
The matching figures for `CCOC(=O)CCN1CCN(c2ccc3c(c2)C(N(CC)C(=O)OCc2ccccc2)CCC3)CC1` (centres unmarked) [MDW-1-190, Ethyl 3-(4-(8-(((benzyloxy)carbonyl)(ethyl)amino)-5,6,7,8-tetrahydronaphthalen-2-yl)piperazin-1-yl)propanoate]: 3320 nM, 20 nM and 166.
As for `CCCN1CCN(c2ccc3c(c2)CCCC3N(C)C(=O)OCc2ccccc2)CC1` (centres unmarked) [MDW-1-204, Benzyl methyl(6-(4-propylpiperazin-1-yl)-1,2,3,4-tetrahydronaphthalen-1-yl)carbamate], the Ki at sigma 1 receptor (setting [3]) worked out at 40 nM; on sigma 2 receptor (setting [4]) it was 13 nM. For the same compound, the “Ki ratio Sig1R/Sig2R” value on sigma 2 receptor (Table 2) is reported as 3.
In the case of `CN(C(=O)OCc1ccccc1)C1CCCc2ccc(N3CCN(C4CCCCC4)CC3)cc21` (centres unmarked) [MDW-1-205, Benzyl (7-(4-cyclohexylpiperazin-1-yl)-1,2,3,4-tetrahydronaphthalen-1-yl)(methyl)carbamate], the inhibitory constant (Ki) came to 16 nM at sigma 1 receptor (setting [1]) and 2 nM on sigma 2 receptor (setting [2]). Also, the “Ki ratio Sig1R/Sig2R” value on sigma 2 receptor (Table 1) was determined as 8.

These data come from patent US20210323913A1, “SIGMA RECEPTOR BINDERS” (BOARD OF REGENTS, THE UNIVERSITY OF TEXAS SYSTEM, priority 2016, published 2021).
